Compound	melting point
NS(=O)(=O)c1cccc(-c2noc(-c3cnn4ccc(-c5ccc(Cl)cc5)nc34)n2)c1 [Example 49, 3-{5-[5-(4-Chloro-phenyl)-pyrazolo[1,5-a]pyrimidin-3-yl]-[1,2,4]oxadiazol-3-yl}-benzenesulfonamide]	223 °C
NS(=O)(=O)c1ccc(-c2noc(-c3cnc4ccc(-c5ccc(C(F)(F)F)cc5)cn34)n2)cc1 [Example 50, 4-{5-[6-(4-Trifluoromethyl-phenyl)-imidazo[1,2-a]pyridin-3-yl]-[1,2,4]oxadiazol-3-yl}-benzenesulfonamide]	288 °C
NS(=O)(=O)c1cccc(-c2noc(-c3cnc4ccc(-c5ccc(C(F)(F)F)cc5)cn34)n2)c1 [Example 51, 3-{5-[6-(4-Trifluoromethyl-phenyl)-imidazo[1,2-a]pyridin-3-yl]-[1,2,4]oxadiazol-3-yl}-benzenesulfonamide]	288 °C
NS(=O)(=O)c1ccc(-c2noc(-c3cnn4ccc(-c5ccc(C(F)(F)F)cc5)nc34)n2)s1 [Example 52, 5-{5-[5-(4-Trifluoromethyl-phenyl)-pyrazolo[1,5-a]pyrimidin-3-yl]-[1,2,4]oxadiazol-3-yl}-thiophene-2-sulfonic acid amide]	251 °C
NS(=O)(=O)c1cccc(-c2noc(-c3cnn4ccc(-c5ccc(C(F)(F)F)cc5)nc34)n2)c1 [Example 53, 3-{5-[5-(4-Trifluoromethyl-phenyl)-pyrazolo[1,5-a]pyrimidin-3-yl]-[1,2,4]oxadiazol-3-yl}-benzenesulfonamide]	270 °C
NS(=O)(=O)c1ccc(-c2noc(-c3cnc4ccc(-c5ccc(C(F)(F)F)cc5)cn34)n2)s1 [Example 54, 5-{5-[6-(4-Trifluoromethyl-phenyl)-imidazo[1,2-a]pyridin-3-yl]-[1,2,4]oxadiazol-3-yl}-thiophene-2-sulfonic acid amide]	280 °C
NS(=O)(=O)c1ccc(-c2noc(-c3cnc4ccc(-c5ccc(Cl)cc5)cn34)n2)s1 [Example 55, 5-{5-[6-(4-Chloro-phenyl)-imidazo[1,2-a]pyridin-3-yl]-[1,2,4]oxadiazol-3-yl}-thiophene-2-sulfonic acid amide]	263 °C
Nc1ccc(-c2noc(-c3cnc4ccc(-c5ccc(C(F)(F)F)cc5)cn34)n2)cn1 [Example 56, 5-{5-[6-(4-Trifluoromethyl-phenyl)-imidazo[1,2-a]pyridin-3-yl]-[1,2,4]oxadiazol-3-yl}-pyridin-2-ylamine]	258 °C
Nc1ccc(-c2noc(-c3cnc4ccc(-c5ccc(Cl)cc5)cn34)n2)cn1 [Example 57, 5-{5-[6-(4-Chloro-phenyl)-imidazo[1,2-a]pyridin-3-yl]-[1,2,4]oxadiazol-3-yl}-pyridin-2-ylamine]	273 °C
Nc1cc(-c2noc(-c3cnn4c(C(F)(F)F)cc(-c5ccc(C(F)(F)F)cc5)nc34)n2)ccn1 [Example 58, 4-{5-[7-Trifluoromethyl-5-(4-trifluoromethyl-phenyl)-pyrazolo[1,5-a]pyrimidin-3-yl]-[1,2,4]oxadiazol-3-yl}-pyridin-2-ylamine]	277 °C
Nc1cc(-c2noc(-c3cnn4ccc(-c5ccc(C(F)(F)F)cc5)nc34)n2)ccn1 [Example 59, 4-{5-[5-(4-Trifluoromethyl-phenyl)-pyrazolo[1,5-a]pyrimidin-3-yl]-[1,2,4]oxadiazol-3-yl}-pyridin-2-ylamine]	250 °C
Cc1cc(-c2ccc(C(F)(F)F)cc2)cn2c(-c3nc(-c4ccnc(N)c4)no3)cnc12 [Example 60, 4-{5-[8-Methyl-6-(4-trifluoromethyl-phenyl)-imidazo[1,2-a]pyridin-3-yl]-[1,2,4]oxadiazol-3-yl}-pyridin-2-ylamine]	264 °C
Nc1cc(-c2noc(-c3cnc4ccc(-c5ccc(C(F)(F)F)cc5)cn34)n2)ccn1 [Example 61, 4-{5-[6-(4-Trifluoromethyl-phenyl)-imidazo[1,2-a]pyridin-3-yl]-[1,2,4]oxadiazol-3-yl}-pyridin-2-ylamine]	280 °C
Nc1ccc(-c2noc(-c3cnn4c(C(F)(F)F)cc(-c5ccc(Cl)cc5)nc34)n2)cn1 [Example 62, 5-{5-[5-(4-Chloro-phenyl)-7-trifluoromethyl-pyrazolo[1,5-a]pyrimidin-3-yl]-[1,2,4]oxadiazol-3-yl}-pyridin-2-ylamine]	253 °C
Nc1ccc(-c2noc(-c3cnn4c(C(F)F)cc(-c5ccc(Cl)cc5)nc34)n2)cn1 [Example 63, 5-{5-[5-(4-Chloro-phenyl)-7-difluoromethyl-pyrazolo[1,5-a]pyrimidin-3-yl]-[1,2,4]oxadiazol-3-yl}-pyridin-2-ylamine]	254 °C
Cc1cc(-c2cc(C(F)(F)F)n3ncc(-c4nc(-c5ccc(N)nc5)no4)c3n2)ccc1Cl [Example 64, 5-{5-[5-(4-Chloro-3-methyl-phenyl)-7-trifluoromethyl-pyrazolo[1,5-a]pyrimidin-3-yl]-[1,2,4]oxadiazol-3-yl}-pyridin-2-ylamine]	262 °C

Compound	melting point
Cc1cc(-c2cc(C(F)F)n3ncc(-c4nc(-c5ccc(N)nc5)no4)c3n2)ccc1C(F)(F)F [Example 65, 5-{5-[7-Difluoromethyl-5-(3-methyl-4-trifluoromethyl-phenyl)-pyrazolo[1,5-a]pyrimidin-3-yl]-[1,2,4]oxadiazol-3-yl}-pyridin-2-ylamine]	231 °C
Nc1ccc(-c2noc(-c3cnn4c(C(F)F)cc(-c5ccc(Cl)c(Cl)c5)nc34)n2)cn1 [Example 66, 5-{5-[5-(3,4-Dichloro-phenyl)-7-difluoromethyl-pyrazolo[1,5-a]pyrimidin-3-yl]-[1,2,4]oxadiazol-3-yl}-pyridin-2-ylamine]	279 °C
Nc1ccc(-c2noc(-c3cnn4c(C(F)(F)F)cc(-c5ccc(Cl)c(Cl)c5)nc34)n2)cn1 [Example 67, 5-{5-[5-(3,4-Dichloro-phenyl)-7-trifluoromethyl-pyrazolo[1,5-a]pyrimidin-3-yl]-[1,2,4]oxadiazol-3-yl}-pyridin-2-ylamine]	289 °C
CCOc1cc(-c2cc(C(F)F)n3ncc(-c4nc(-c5ccc(N)nc5)no4)c3n2)ccc1C(F)(F)F [Example 68, 5-{5-[7-Difluoromethyl-5-(3-ethoxy-4-trifluoromethyl-phenyl)-pyrazolo[1,5-a]pyrimidin-3-yl]-[1,2,4]oxadiazol-3-yl}-pyridin-2-ylamine]	250 °C
CCOc1cc(-c2cc(C(F)(F)F)n3ncc(-c4nc(-c5ccc(N)nc5)no4)c3n2)ccc1C(F)(F)F [Example 69, 5-{5-[5-(3-Ethoxy-4-trifluoromethyl-phenyl)-7-trifluoromethyl-pyrazolo[1,5-a]pyrimidin-3-yl]-[1,2,4]oxadiazol-3-yl}-pyridin-2-ylamine]	263 °C
Nc1ccc(-c2noc(-c3cnn4c(C(F)(F)F)cc(-c5ccc(C(F)(F)F)c(OCC(F)(F)F)c5)nc34)n2)cn1 [Example 70, 5-(5-{5-[3-(2,2,2-Trifluoro-ethoxy)-4-trifluoromethyl-phenyl]-7-trifluoromethyl-pyrazolo[1,5-a]pyrimidin-3-yl}-[1,2,4]oxadiazol-3-yl)-pyridin-2-ylamine]	284 °C
Nc1ccc(-c2noc(-c3cnn4c(C(F)F)cc(-c5ccc(C(F)(F)F)c(OCC(F)(F)F)c5)nc34)n2)cn1 [Example 71, 5-(5-{7-Difluoromethyl-5-[3-(2,2,2-trifluoro-ethoxy)-4-trifluoromethyl-phenyl]-pyrazolo[1,5-a]pyrimidin-3-yl}-[1,2,4]oxadiazol-3-yl)-pyridin-2-ylamine]	285 °C
Nc1ccc(-c2noc(-c3cnn4c(C(F)F)cc(-c5ccc(C(F)(F)F)c(Cl)c5)nc34)n2)cn1 [Example 72, 5-{5-[5-(3-Chloro-4-trifluoromethyl-phenyl)-7-difluoromethyl-pyrazolo[1,5-a]pyrimidin-3-yl]-[1,2,4]oxadiazol-3-yl}-pyridin-2-ylamine]	252 °C
Nc1ccc(-c2noc(-c3cnn4c(C(F)(F)F)cc(-c5ccc(C(F)(F)F)c(Cl)c5)nc34)n2)cn1 [Example 73, 5-{5-[5-(3-Chloro-4-trifluoromethyl-phenyl)-7-trifluoromethyl-pyrazolo[1,5-a]pyrimidin-3-yl]-[1,2,4]oxadiazol-3-yl}-pyridin-2-ylamine]	234 °C
Nc1ccc(-c2noc(-c3cnn4c(C(F)F)cc(-c5ccc(C(F)(F)F)c(F)c5)nc34)n2)cn1 [Example 74, 5-{5-[7-Difluoromethyl-5-(3-fluoro-4-trifluoromethyl-phenyl)-pyrazolo[1,5-a]pyrimidin-3-yl]-[1,2,4]oxadiazol-3-yl}-pyridin-2-ylamine]	242 °C
Nc1ccc(-c2noc(-c3cnn4c(C(F)(F)F)cc(-c5ccc(C(F)(F)F)c(F)c5)nc34)n2)cn1 [Example 75, 5-{5-[5-(3-Fluoro-4-trifluoromethyl-phenyl)-7-trifluoromethyl-pyrazolo[1,5-a]pyrimidin-3-yl]-[1,2,4]oxadiazol-3-yl}-pyridin-2-ylamine]	233 °C
Nc1ccc(-c2noc(-c3cnn4c(C(F)(F)F)cc(-c5ccc(F)c(F)c5)nc34)n2)cn1 [Example 76, 5-{5-[5-(3,4-Difluoro-phenyl)-7-trifluoromethyl-pyrazolo[1,5-a]pyrimidin-3-yl]-[1,2,4]oxadiazol-3-yl}-pyridin-2-ylamine]	262 °C
Nc1ncc(-c2noc(-c3cnn4c(C(F)(F)F)cc(-c5ccc(F)c(F)c5)nc34)n2)cn1 [Example 78, 5-{5-[5-(3,4-Difluoro-phenyl)-7-trifluoromethyl-pyrazolo[1,5-a]pyrimidin-3-yl]-[1,2,4]oxadiazol-3-yl}-pyrimidin-2-ylamine]	268 °C
Nc1ncc(-c2noc(-c3cnn4c(C(F)(F)F)cc(-c5ccc(C(F)(F)F)c(F)c5)nc34)n2)cn1 [Example 79, 5-{5-[5-(3-Fluoro-4-trifluoromethyl-phenyl)-7-trifluoromethyl-pyrazolo[1,5-a]pyrimidin-3-yl]-[1,2,4]oxadiazol-3-yl}-pyrimidin-2-ylamine]	270 °C
Nc1ncc(-c2noc(-c3cnn4c(C(F)(F)F)cc(-c5ccc(C(F)(F)F)c(Cl)c5)nc34)n2)cn1 [Example 80, 5-{5-[5-(3-Chloro-4-trifluoromethyl-phenyl)-7-trifluoromethyl-pyrazolo[1,5-a]pyrimidin-3-yl]-[1,2,4]oxadiazol-3-yl}-pyrimidin-2-ylamine]	279 °C

— patent publication US8349844B2, “Substituted pyrazolo [1,5-A] pyrimidines as metabotropic glutamate antagonists” (Hoffmann-La Roche Inc., priority 2005, dated 2013)
